Assay results taken from patent US6846641B2, “In vitro ischemia model” (AGY Therapeutics, Inc., priority 2002, dated 2005).
Where a name gives a salt, the structure may show the parent alone.

Key:
[1] = test system: CA1 region of mouse hippocampal organotypic tissue cultures; assay: Oxygen and glucose deprivation (OGD) in iCSF, propidium iodide uptake in mouse hippocampal organotypic cultures; assay type: cell-based; conditions: 24 hours of recovery
CA1 cells = conditions: given after the ischemic insult; cited from earlier work

SMILES	protective effect (damage in CA1 versus OGD-controls) ([1]; 150 μM, one hour before OGD, in iCSF during 15-minute OGD and throughout recovery) [%]	protective effect against 15-minute-OGD in iCSF (PI-intensity in the CA1-area) ([1]; 150 μM, p<0.0001, n=18-24)	protection of CA1 cells (CA1 cells)	less damage in the CA1 region compared to matched OGD-control cultures ([1]; 20 μM, pretreatment one hour before 15-minute OGD in iCSF) [%]
N[C@H](CCCP(=O)(O)O)C(=O)O [D-AP5, D-2 amino-5-phosphonopentanoic-acid]	70	significant	–	–
C[C@]12N[C@H](Cc3ccccc31)c1ccccc12 [MK-801, dizocilpine maleate]	–	–	protected CA1 cells	90
